Molecular target: T1, GmPP2C1 (Glycine max, UniProt K7LYY2)
T1 sequence (K7LYY2 1-536): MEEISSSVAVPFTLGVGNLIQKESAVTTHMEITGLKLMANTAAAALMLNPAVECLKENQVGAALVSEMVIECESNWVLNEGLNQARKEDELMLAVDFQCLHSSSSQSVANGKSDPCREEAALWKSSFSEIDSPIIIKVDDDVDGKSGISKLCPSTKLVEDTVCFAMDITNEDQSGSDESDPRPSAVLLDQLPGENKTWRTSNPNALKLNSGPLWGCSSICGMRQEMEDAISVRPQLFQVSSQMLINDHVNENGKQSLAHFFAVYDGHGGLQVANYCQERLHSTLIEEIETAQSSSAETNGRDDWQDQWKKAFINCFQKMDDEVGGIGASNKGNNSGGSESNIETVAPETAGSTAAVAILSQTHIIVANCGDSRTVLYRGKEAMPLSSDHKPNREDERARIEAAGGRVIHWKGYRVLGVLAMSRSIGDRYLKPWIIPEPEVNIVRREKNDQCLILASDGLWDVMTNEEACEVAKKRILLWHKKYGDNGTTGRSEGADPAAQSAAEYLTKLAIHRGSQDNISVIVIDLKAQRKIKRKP
Test: pNPP hydrolysis at […] nm
Type: biochemical
Conditions: 1 μM His-GmPP2C1, 50 mM pNPP, pH 7.5, 25 mM Mg(OAc)2, 2 mM MnCl2

SMILES: O=[N+]([O-])c1ccc(OP(=O)(O)O)cc1 [p-nitrophenyl phosphate]
- pNPP hydrolysis at 405 nm: GmPP2C1 phosphatase activity was measured using the colorimetric substrate p-nitrophenyl phosphate (pNPP, Sigma)
